From patent EP4768487A1, “FUSED LACTAM RING COMPOUND AND USE THEREOF” (Chengdu Zenitar Biomedical Technology Co., Ltd., priority 2023, dated 2025)

target: T1, PARP1 (Homo sapiens, UniProt P09874); assay: PARP1 enzyme assay (histone-coated plate, chemiluminescence); format: biochemical; settings: PARP1 0.02 nM, DNA 0.8 nM, NAD+ 3.5 µM; read-out: PARP-1 IC50
T1 construct: purchased BPS 80501
Description: 1.1.1. Buffer preparation: PBST: 1× PBS, 0.05% Tween-20; blocking buffer: 1× PBS, 0.05% Tween-20, 5% BSA; reaction buffer: 50 mM Tris-HCl (pH 7.5), 0.005% Tween-20, 0.01% BSA.
1.1.2. Coating: A 50 ng/mL Histone coating solution was prepared with 1× PBS and then transferred to a 384-well reaction plate at 25 µL/well. The plate was coated at 4 °C overnight.
1.1.3. Washing: After the coating was completed, the coating solution was discarded, and the plate was washed with the PBST solution. The method was as follows: PBST was transferred to the 384-well reaction plate at 50 µL/well, and the plate was left to stand for 5 min. The washing solution was then discarded, and the plate was refilled. The washing step was repeated 3 times. Finally, the reaction plate was patted dry and left for the next step of blocking.
1.1.4. Blocking: The blocking buffer was transferred to the 384-well reaction plate at 50 µL/well, and the plate was left to stand for 1 h.
Washing: After the blocking was completed, the blocking buffer was discarded, and the plate was washed 3 times with the PBST solution according to the method in step 2. Finally, the reaction plate was patted dry.
1.1.5. A 1000-fold solution of a compound was prepared and then transferred at 1 µL/well to a 96-well plate containing 199 µL of the reaction buffer. The mixture was well mixed, and then the well mixed compound solution was transferred to the 384-well reaction plate at 5 µL/well. 1.1.6. A 25/10-fold PARP1-DNA solution was prepared with the reaction buffer and then transferred to the 384-well reaction plate at 10 µL/well. For the negative control wells, 10 µL
of the DNA solution was transferred. The final concentrations of PARP1 and DNA were 0.02 nM and 0.8 nM, respectively.
1.1.9. Washing: After the reaction was completed, the reaction solution was discarded, and the plate was washed 3 times with the PBST solution according to the method in step 2. Finally, the reaction plate was patted dry.
1.1.10. A primary antibody (anti-Poly/Mono-ADP Ribose Rabbit mAb) was diluted 2000-fold with the blocking buffer and then added at 20 µL/well.
1.1.11. Washing: The primary antibody was discarded, and the plate was washed 3 times with the PBST solution according to the method in step 2. Finally, the reaction plate was patted dry.
1.1.12. A secondary antibody (anti-rabbit IgG, HRP-linked Antibody) was diluted 2000-fold with the blocking buffer and then added at 20 µL/well.
1.1.13. Washing: The secondary antibody was discarded, and the plate was washed 3 times with the PBST solution according to the method in step 2. Finally, the reaction plate was patted dry.
1.1.14. Color development: Femto-ECL Substrate A and Femto-ECL Substrate B were mixed at a ratio of 1:1, and the mixture was transferred to the 384-well reaction plate at 25 µL/well. 1.1.15. Reading: The chemiluminescence values (RLU) were measured using Envision.

T1 sequence (P09874 whole entry): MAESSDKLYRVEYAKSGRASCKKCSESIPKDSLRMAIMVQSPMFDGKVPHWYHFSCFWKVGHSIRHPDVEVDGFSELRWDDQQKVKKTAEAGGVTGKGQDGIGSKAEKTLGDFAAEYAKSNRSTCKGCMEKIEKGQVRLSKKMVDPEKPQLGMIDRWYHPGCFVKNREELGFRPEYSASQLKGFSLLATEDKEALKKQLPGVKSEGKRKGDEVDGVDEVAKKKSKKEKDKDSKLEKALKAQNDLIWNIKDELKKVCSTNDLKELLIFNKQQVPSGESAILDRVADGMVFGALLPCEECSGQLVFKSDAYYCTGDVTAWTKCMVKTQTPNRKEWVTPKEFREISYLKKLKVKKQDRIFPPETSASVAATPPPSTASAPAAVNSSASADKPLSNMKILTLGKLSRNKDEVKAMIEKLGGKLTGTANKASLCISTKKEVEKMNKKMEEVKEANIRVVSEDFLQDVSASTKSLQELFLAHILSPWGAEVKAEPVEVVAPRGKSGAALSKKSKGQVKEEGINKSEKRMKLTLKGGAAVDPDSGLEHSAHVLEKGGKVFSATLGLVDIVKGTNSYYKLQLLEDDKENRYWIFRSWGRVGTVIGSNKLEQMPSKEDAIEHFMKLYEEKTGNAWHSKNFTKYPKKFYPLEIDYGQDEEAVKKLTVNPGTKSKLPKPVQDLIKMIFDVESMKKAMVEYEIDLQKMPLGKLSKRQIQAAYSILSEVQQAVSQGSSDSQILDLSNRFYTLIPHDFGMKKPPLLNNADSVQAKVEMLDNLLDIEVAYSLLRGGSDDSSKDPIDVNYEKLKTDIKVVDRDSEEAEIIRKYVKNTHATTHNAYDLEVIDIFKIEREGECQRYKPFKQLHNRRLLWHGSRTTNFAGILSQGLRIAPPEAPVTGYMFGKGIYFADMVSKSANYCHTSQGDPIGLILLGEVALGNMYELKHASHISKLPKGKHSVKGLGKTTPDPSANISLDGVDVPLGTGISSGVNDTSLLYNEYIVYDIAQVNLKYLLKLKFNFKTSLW

Structure (SMILES) | IC50 [nM]
[2H]C([2H])([2H])NC(=O)c1ccc(N2CCN(CC3CCc4cc(CC)c(=O)[nH]c4C3)CC2)c(F)n1 (stereo not drawn) [Compound 19, 5-(4-((3-Ethyl-2-oxo-1,2,5,6 ,7,8-hexahydroquinoline-7-yl)methyl)piperazin-1-yl)-6-fl uoro-N-(methyl-d3)picolinamide] | ≤ 50
CCc1cc2c([nH]c1=O)CC(CN1CC=C(c3ccc(C(=O)NCC(F)F)nc3F)CC1)CC2 (stereo not drawn) [Compound 30, N-(2,2-Difluoroethyl)-1'-((3-ethyl-2-oxo-1,2,5,6,7,8-hexahydroquinoline-7-yl)methyl)-2-fluoro-1',2',3',6'-tetrahy dro-[3,4'-bipyridine]-6-carb oxamide] | ≤ 50
CCc1cc2c([nH]c1=O)CC(CN1CC=C(c3ccc(C(=O)NC4CC4)nc3)CC1)OC2 (stereo not drawn) [Compound 8, N-Cyclopropyl-1'-((3-ethyl-2-oxo-1,5,7,8-tetrahydro-2H -pyrano[4,3-b]pyridin-7-yl)methyl)-1',2',3',6'-tetrahydro-[3,4'-bipyridine]-6-carboxamide] | ≤ 50
CCc1cc2c([nH]c1=O)CC(CN1CCN(c3ccc(C(=O)NC4CC4)nc3)CC1)CC2 (stereo not drawn) [Compound 20, N-Cyclopropyl-5-(4-((3-ethyl-2-oxo-1,2,5,6,7,8-hexahydroquinoline-7-yl)methyl)piperazin-1-yl)picolinamide] | ≤ 50
CCc1cc2c([nH]c1=O)CC(CN1CC=C(c3ccc(C(=O)NC)nc3C)CC1)CC2 (stereo not drawn) [Compound 25, 1'-((3-Ethyl-2-oxo-1,2,5,6,7,8-hexahydroquinoline-7-yl)methyl)-N,2-dimethyl-1',2',3 ',6'-tetrahydro-[3,4'-bipyridine]-6-carboxamide] | ≤ 50
CCc1cc2c([nH]c1=O)CC(CN1CCN(c3ccc(C(=O)NCC(F)F)nc3F)CC1)CC2 (stereo not drawn) [Compound 22, N-(2,2-Difluoroethyl)-5-(4-( (3-ethyl-2-oxo-1,2,5,6,7,8-hexahydroquinoline-7-yl)methyl)piperazin-1-yl)-6-fluoro picolinamide] | ≤ 50
[2H]C([2H])([2H])NC(=O)c1ccc(C2=CCN(CC3CCc4cc(CC)c(=O)[nH]c4C3)CC2)c(F)n1 (stereo not drawn) [Compound 27, 1'-((3-Ethyl-2-oxo-1,2,5,6,7,8-hexahydroquinoline-7-yl)methyl)-2-fluoro-N-(methyl-d3)-1',2',3',6'-tetrahydro-[3,4' -bipyridine]-6-carboxamide] | ≤ 50
CCc1cc2c([nH]c1=O)CC(CN1CC=C(c3ccc(C(=O)NC)nc3F)CC1)CC2 (stereo not drawn) [Compound 24, 1'-((3-Ethyl-2-oxo-1,2,5,6,7,8-hexahydroquinoline-7-yl)methyl)-2-fluoro-N-methyl-1',2',3',6'-tetrahydro-[3,4'-bipyridine]-6-carboxamide] | ≤ 50
[2H]C([2H])([2H])NC(=O)c1ccc(N2CCN(CC3CCc4cc(CC)c(=O)[nH]c4C3)CC2)cn1 (stereo not drawn) [Compound 18, 5-(4-((3-Ethyl-2-oxo-1,2,5,6 ,7,8-hexahydroquinoline-7-yl)methyl)piperazin-1-yl)-N-(methyl-d3)picolinamide] | ≤ 50
CCc1cc2c([nH]c1=O)CC(CN1CCN(c3ccc(C(=O)NC)nc3F)C[C@@H]1C)OC2 (stereo partly drawn) [Example 72, 5-((3S)-4-((3-Ethyl-2-oxo-1,5,7,8-tetrahydro-2H-pyrano[4,3-b]pyridin-7-yl)methyl)-3-methylpiperazin-1-yl)-6-fluoro-N-methylpicolinamide] | 50 to 500
CCc1cc2c([nH]c1=O)CC(CN1CC=C(c3ccc(C(=O)NC4CC4)nc3F)CC1)OC2 (stereo not drawn) [Compound 7, N-Cyclopropyl-1'-((3-ethyl-2-oxo-1,5,7,8-tetrahydro-2H -pyrano[4,3-b]pyridin-7-yl)methyl)-2-fluoro-1',2',3',6'-tetrahydro-[3,4'-bipyridine]-6-carboxamide] | ≤ 50
CNC(=O)c1ccc(N2CCN(C[C@@H]3Cc4[nH]c(=O)c(C)cc4CO3)CC2)c(Cl)n1 [Example 94, (S)-6-Chloro-N-methyl-5-(4-((3-methyl-2-oxo-1,5,7,8-tetrahydro-2H-pyrano[4,3-b]pyridin-7-yl)methyl)piperazin-1-yl)picolinamide] | ≤ 50
